Data reported in US20260022143A1, “Cyclic Peptide Inhibitors of IL-23” (JANSSEN PHARMACEUTICA NV, priority 2022, published 2026).
Counter-ions that a name gives are not always drawn. Starred links: 1 amine or outer side, 2 acyl side, 3 side chain; linkers in the order of their positions; H or OH if unused. Positions of bridges follow the written chain, without caps; N, C: chain ends. Non-standard residues stand in square brackets, D forms with d. Residues, ends and D or L forms follow the SMILES beside them. Groups on a side chain read outwards from the residue. *: point of attachment. Trp(7-(3-AcNH-Ph)) = CC(=O)Nc1cccc(-c2cccc3c(C[C@H](N)C(=O)O)c[nH]c23)c1; X36 = C[N+]1(CCCc2cn(-c3ccc(C[C@H](N[*:1])C(=O)[*:2])cc3)nn2)CCOCC1; Me3N+(CH2)2O(CH2)2O(CH2)2CO = C[N+](C)(C)CCOCCOCCC(=O)*; Trp(7-CF3) = N[C@@H](Cc1c[nH]c2c(C(F)(F)F)cccc12)C(=O)O; Trp(7-Me) = Cc1cccc2c(C[C@H](N)C(=O)O)c[nH]c12; dLys(Me3) = C[N+](C)(C)CCCC[C@@H](N)C(=O)O; 3Pal(5-Me) = Cc1cncc(C[C@H](N)C(=O)O)c1; γGlu = O=C(O)[C@H](CCC(=O)[*:2])N[*:1]; 2Nal = N[C@@H](Cc1ccc2ccccc2c1)C(=O)O; AEF = NCCOc1ccc(C[C@H](N)C(=O)O)cc1; 3Pal = N[C@@H](Cc1cccnc1)C(=O)O; Myristoyl = CCCCCCCCCCCCCC(=O)*; Lys(Me) = CNCCCC[C@H](N)C(=O)O; Chg = N[C@H](C(=O)O)C1CCCCC1; NMeK = CN[C@@H](CCCCN)C(=O)O; Pen = CC(C)(S)[C@H](N)C(=O)O; X8 = C[N+](C)(C)CCCCCCCC*; Thp = NC1(C(=O)O)CCOCC1; X3 = C[N+](C)(C)CCCCC*; AEEA = NCCOCCOCC(=O)O; Tfa = O=C(C(F)(F)F)*; Sar = CNCC(=O)O

Assay: Exposed Polar Surface Area (EPSA)
Format: physicochemical
Conditions: SFC on Chirex 3014 column; sample 1 mM DMSO stock; read-out: EPSA
Outline: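 Polarity descriptor in Å² derived from retention time using 8 calibration standards re-run every 20 compounds. Duplicate injections of 1 mM DMSO stock; linear 5–60% modifier gradient (20 mM ammonium formate in MeOH) with CO2 at 4 mL/min, 35 °C, on a Chirex 3014 column.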

EPSA [A^2]	Compound
160	CC(=O)NCCCC[C@@H]1NC(=O)[C@H](Cc2c[nH]c3c(C)cccc23)NC(=O)[C@H]([C@@H](C)O)NC(=O)[C@H](CC(N)=O)NC(=O)[C@@H](NC(=O)C(F)(F)F)C(C)(C)SSC(C)(C)[C@@H](C(=O)N[C@@H](Cc2ccc(OCCN)cc2)C(=O)N[C@@H](Cc2ccc3ccccc3c2)C(=O)NC2(C(=O)N[C@@H](CCC(=O)N(C)C)C(=O)N[C@@H](CC(N)=O)C(=O)N[C@@H](Cc3cccnc3)C(=O)N(C)CC(N)=O)CCOCC2)NC1=O [compound 72] (Tfa-[Pen]NT[Trp(7-Me)]K(Ac)[Pen][AEF][2Nal][Thp]E(NMe2)N[3Pal][Sar]-NH2; disulfide 1-6 (inferred))
150	CC(=O)N(C)CCCC[C@@H]1NC(=O)[C@H](Cc2c[nH]c3c(C)cccc23)NC(=O)[C@H]([C@@H](C)O)NC(=O)[C@H](CC(=O)N(C)C)NC(=O)[C@@H](NC(=O)CCOCCOCC[N+](C)(C)C)C(C)(C)SSC(C)(C)[C@@H](C(=O)N[C@@H](Cc2ccc(OCCCCCCCC[N+](C)(C)C)cc2)C(=O)N[C@@H](Cc2ccc3ccccc3c2)C(=O)NC2(C(=O)N[C@@H](CCCCN(C)C(C)=O)C(=O)N[C@@H](CC(N)=O)C(=O)N[C@@H](Cc3cccnc3)C(=O)N(C)CC(=O)N(C)C)CCOCC2)NC1=O [compound 295, cPEG3aCO-Pen(3)-N(N(Me)2)-T-7MeW-K(NMeAc)-Pen(3)-TMA8F-2Nal-THP-K(NMeAc)-N-3Pya-Sar-CON(Me)2] ({Me3N+(CH2)2O(CH2)2O(CH2)2CO}-[Pen]D(NMe2)T[Trp(7-Me)][Lys(Me)](Ac)[Pen]Y(X8)[2Nal][Thp][Lys(Me)](Ac)N[3Pal][Sar]-NMe2; disulfide 1-6)
142	CC(=O)N(C)CCCC[C@@H]1NC(=O)[C@H](Cc2c[nH]c3c(C(F)(F)F)cccc23)NC(=O)[C@H]([C@@H](C)O)NC(=O)[C@H](CC(=O)N(C)C)NC(=O)[C@@H](NC(=O)C(F)(F)F)C(C)(C)SSC(C)(C)[C@@H](C(=O)N[C@@H](Cc2ccc(OCCN)cc2)C(=O)N[C@@H](Cc2ccc3ccccc3c2)C(=O)NC2(C(=O)N[C@@H](CCCCN(C)C(C)=O)C(=O)N[C@@H](CC(N)=O)C(=O)N[C@@H](Cc3cccnc3)C(=O)N(C)CC(=O)N(C)C)CCOCC2)NC1=O [compound 94, CF3CO-Pen(3)-N(N(Me)2)-T-7CF3W-K(NMeAc)-Pen(3)-AEF-2Nal-THP-K(NMeAc)-N-3Pya-Sar-CON(Me)2] (Tfa-[Pen]D(NMe2)T[Trp(7-CF3)][Lys(Me)](Ac)[Pen][AEF][2Nal][Thp][Lys(Me)](Ac)N[3Pal][Sar]-NMe2; disulfide 1-6)
153	CC(=O)N[C@@H]1C(=O)N[C@@H](CC(=O)N(C)C)C(=O)N[C@@H]([C@@H](C)O)C(=O)N[C@@H](Cc2c[nH]c3c(C)cccc23)C(=O)N[C@@H](CCCCN(C)C(C)=O)C(=O)N[C@H](C(=O)N[C@@H](Cc2ccc(OCCN)cc2)C(=O)N[C@@H](Cc2ccc3ccccc3c2)C(=O)NC2(C(=O)N[C@@H](CCCCN(C)C(C)=O)C(=O)N[C@@H](CC(N)=O)C(=O)N[C@@H](Cc3cccnc3)C(=O)N(C)CC(N)=O)CCOCC2)C(C)(C)SSC1(C)C [compound 182, MeCO-Pen(3)-N(N(Me)2)-T-7MeW-K(NMeAc)-Pen(3)-AEF-2Nal-THP-K(NMeAc)-N-3Pya-Sar-CONH2] (Ac-[Pen]D(NMe2)T[Trp(7-Me)][Lys(Me)](Ac)[Pen][AEF][2Nal][Thp][Lys(Me)](Ac)N[3Pal][Sar]-NH2; disulfide 1-6)
187	CCCCCCCCCCCCCC(=O)N[C@@H](CCC(=O)NCCOCCOCC(=O)NCCOCCOCC(=O)NCCCC[C@@H](NC(=O)CCOCCOCC[N+](C)(C)C)C(=O)N[C@@H]1C(=O)N[C@@H](CC(=O)N(C)C)C(=O)N[C@@H]([C@@H](C)O)C(=O)N[C@@H](Cc2c[nH]c3c(C)cccc23)C(=O)N[C@@H](CCCCNC(C)=O)C(=O)N[C@H](C(=O)N[C@@H](Cc2ccc(OCCCCC[N+](C)(C)C)cc2)C(=O)N[C@@H](Cc2ccc3ccccc3c2)C(=O)NC2(C(=O)N[C@@H](CCCCN(C)C(C)=O)C(=O)N[C@@H](CC(N)=O)C(=O)N[C@@H](Cc3cccnc3)C(=O)N(C)[C@@H](CCCCNC(=O)COCCOCCNC(=O)COCCOCCNC(=O)CC[C@H](NC(=O)CCCCCCCCCCCCC)C(=O)O)C(N)=O)CCOCC2)C(C)(C)SSC1(C)C)C(=O)O [compound 347, cPEG3aCO-k(PEG2PEG2gEC14)-Pen(3)-N(N(Me)2)-T-7MeW-K(Ac)-Pen(3)-TMAPF-2Nal-THP-K(NMeac)-N-3Pya-NMeK(PEG2PEG2gEC14)-CONH2] ({Me3N+(CH2)2O(CH2)2O(CH2)2CO}-[dK]([AEEA-AEEA-γGlu-Myristoyl])[Pen]D(NMe2)T[Trp(7-Me)]K(Ac)[Pen]Y(X3)[2Nal][Thp][Lys(Me)](Ac)N[3Pal][NMeK]([AEEA-AEEA-γGlu-Myristoyl])-NH2; disulfide 2-7)
154	CC(=O)N(C)CCCC[C@H](NC(=O)C1(NC(=O)[C@H](Cc2ccc3ccccc3c2)NC(=O)[C@H](Cc2ccc(OCCN)cc2)NC(=O)[C@H]2NC(=O)[C@H](CCC(=O)N(C)C)NC(=O)[C@H](Cc3c[nH]c4c(C)cccc34)NC(=O)[C@H]([C@@H](C)O)NC(=O)[C@H](CC(N)=O)NC(=O)[C@@H](NC(=O)CCOCCOCC[N+](C)(C)C)C(C)(C)SSC2(C)C)CCOCC1)C(=O)N[C@@H](CC(N)=O)C(=O)N[C@@H](Cc1cccnc1)C(=O)N(C)CC(N)=O [compound 168, cPEG3aCO-Pen(3)-N-T-7MeW-Q(N(Me)2)-Pen(3)-AEF-2Nal-THP-K(NMeAc)-N-3Pya-Sar-CONH2] ({Me3N+(CH2)2O(CH2)2O(CH2)2CO}-[Pen]NT[Trp(7-Me)]E(NMe2)[Pen][AEF][2Nal][Thp][Lys(Me)](Ac)N[3Pal][Sar]-NH2; disulfide 1-6)
167	CC(=O)NCCCC[C@@H]1NC(=O)[C@H](Cc2c[nH]c3c(C)cccc23)NC(=O)[C@H]([C@@H](C)O)NC(=O)[C@H](CC(N)=O)NC(=O)[C@@H](NC(=O)CCOCCOCC[N+](C)(C)C)C(C)(C)SSC(C)(C)[C@@H](C(=O)N[C@@H](Cc2ccc(-n3cc(CCC[N+]4(C)CCOCC4)nn3)cc2)C(=O)N[C@@H](Cc2ccc3ccccc3c2)C(=O)NC2(C(=O)N[C@@H](CCCCNC(C)=O)C(=O)N[C@@H](CC(N)=O)C(=O)N[C@@H](Cc3cccnc3)C(=O)N(C)CC(N)=O)CCOCC2)NC1=O [compound 439, cPEG3aCO-Pen(3)-N-T-7MeW-K(Ac)-Pen(3)-F(4TzlMMo3)-2Nal-THP-K(Ac)-N-3Pya-Sar-CONH2] ({Me3N+(CH2)2O(CH2)2O(CH2)2CO}-[Pen]NT[Trp(7-Me)]K(Ac)[Pen][X36][2Nal][Thp]K(Ac)N[3Pal][Sar]-NH2; disulfide 1-6)
184	CCCCCCCCCCCCCC(=O)N[C@@H](CCC(=O)NCCOCCOCC(=O)NCCOCCOCC(=O)NCCCC[C@@H]1NC(=O)[C@H](Cc2c[nH]c3c(C)cccc23)NC(=O)[C@H]([C@@H](C)O)NC(=O)[C@H](CC(=O)N(C)C)NC(=O)[C@@H](NC(=O)[C@H](COCCOCC[N+](C)(C)C)NC(=O)COCCOCCNC(=O)COCCOCCNC(=O)CC[C@H](NC(=O)CCCCCCCCCCCCC)C(=O)O)C(C)(C)SSC(C)(C)[C@@H](C(=O)N[C@@H](Cc2ccc(OCCOCCOCC[N+](C)(C)C)cc2)C(=O)N[C@@H](Cc2ccc3ccccc3c2)C(=O)NC2(C(=O)N[C@@H](CCCCN(C)C(C)=O)C(=O)N[C@@H](CC(N)=O)C(=O)N[C@@H](Cc3cccnc3)C(=O)N(C)CC(=O)N(C)C)CCOCC2)NC1=O)C(=O)O (relative stereo) [compound 369, C14gEPEG2PEG2CO-APEG2Ser(S*)-Pen(3)-N(N(Me)2)-T-7MeW-K(PEG2PEG2gEC14)-Pen(3)-APEG3F-2Nal-THP-K(NMeAc)-N-3Pya-Sar-CON(Me)2]
190	CC(=O)NCCCC[C@@H]1NC(=O)[C@H](Cc2c[nH]c3c(-c4cccc(NC(C)=O)c4)cccc23)NC(=O)[C@H]([C@@H](C)O)NC(=O)[C@H](CC(N)=O)NC(=O)[C@@H](NC(=O)[C@@H](CCCC[N+](C)(C)C)NC(C)=O)C(C)(C)SSC(C)(C)[C@@H](C(=O)N[C@@H](Cc2ccc(OCCN)cc2)C(=O)N[C@@H](Cc2ccc3ccccc3c2)C(=O)NC2(C(=O)N[C@@H](CCC(=O)O)C(=O)N[C@@H](CC(N)=O)C(=O)N[C@@H](Cc3cncc(C)c3)C(=O)N(C)CC(N)=O)CCOCC2)NC1=O [compound 535, MeCO-k(Me)3-Pen(3)-N-T-7(3NAcPh)W-K(Ac)-Pen(3)-AEF-2Nal-THP-E-N-5MePyridinAla-Sar-CONH2] (Ac-[dLys(Me3)][Pen]NT[Trp(7-(3-AcNH-Ph))]K(Ac)[Pen][AEF][2Nal][Thp]EN[3Pal(5-Me)][Sar]-NH2; disulfide 2-7)
155	CC(=O)N(C)CCCC[C@@H]1NC(=O)[C@H](Cc2c[nH]c3c(C)cccc23)NC(=O)[C@H]([C@@H](C)O)NC(=O)[C@H](CC(=O)N(C)C)NC(=O)[C@@H](NC(=O)CCOCCOCC[N+](C)(C)C)C(C)(C)SSC(C)(C)[C@@H](C(=O)N[C@@H](Cc2ccc(OCCCCC[N+](C)(C)C)cc2)C(=O)N[C@@H](Cc2ccc3ccccc3c2)C(=O)N[C@H](C(=O)N[C@@H](CCCCN(C)C(C)=O)C(=O)N[C@@H](CC(N)=O)C(=O)N[C@@H](Cc2cccnc2)C(=O)N(C)CC(=O)N(C)C)C2CCCCC2)NC1=O [compound 340, cPEG3aCO-Pen(3)-N(N(Me)2)-T-7MeW-K(NMeAc)-Pen(3)-TMAPF-2Nal-Chg-K(NMeAc)-N-3Pya-Sar-CON(Me)2] ({Me3N+(CH2)2O(CH2)2O(CH2)2CO}-[Pen]D(NMe2)T[Trp(7-Me)][Lys(Me)](Ac)[Pen]Y(X3)[2Nal][Chg][Lys(Me)](Ac)N[3Pal][Sar]-NMe2; disulfide 1-6)
154	CC(=O)NCCCC[C@@H]1NC(=O)[C@H](Cc2c[nH]c3c(C)cccc23)NC(=O)[C@H]([C@@H](C)O)NC(=O)[C@H](CC(N)=O)NC(=O)[C@@H](NC(=O)C(F)(F)F)C(C)(C)SSC(C)(C)[C@@H](C(=O)N[C@@H](Cc2ccc(OCCN)cc2)C(=O)N[C@@H](Cc2ccc3ccccc3c2)C(=O)NC2(C(=O)N[C@@H](CCCCNC(C)=O)C(=O)N[C@@H](CC(N)=O)C(=O)N[C@@H](Cc3cccnc3)C(=O)N(C)CC(=O)N(C)C)CCOCC2)NC1=O [compound 74] (Tfa-[Pen]NT[Trp(7-Me)]K(Ac)[Pen][AEF][2Nal][Thp]K(Ac)N[3Pal][Sar]-NMe2; disulfide 1-6 (inferred))
